Test results taken from patent publication US5223421A, “Identification of methionine Nα-acetyltransferase” (The General Hospital Corporation, priority 1990, dated 1993).
Several values for one entry are separate records, joined by “and”; a condition that tells them apart may be missing. Equal values may be shown once. Entries after “also recorded” stand apart in the source; their conditions may differ. Read-outs that look alike come from different tables or passages of the source.

What was measured:
[1] = test system: methionine N^α -acetyltransferase from S. cerevisiae; assay: Effect of protein modification reagents on enzyme activity; type: biochemical, Saccharomyces cerevisiae
Protocol: (§1) N^α -acetyltransferase activity was determined as previously described [Lee et al., J. Biol. Chem. 263:14948-14955 (1988)]. Aliquots of the lysate or chromatographic fractions were added to 1.5 ml Eppendorf tubes containing a reaction mixture of 50 mM HEPES, pH 7.4, 150 mM KCl, 1 mM DTT, 25 μM [^3 H] acetyl coenzyme A (0.5 μCi) and 50 μM synthetic peptide with an adjusted final volume of 100 μl. The assay mixture was incubated at 30° C. for 30 min. The reaction was stopped by adding 17 μl of 0.5M acetic acid and chilled in an ice bath. The reaction samples were filtered through SP membrane discs (Cuno) (previously pre-swollen in 0.5M acetic acid), and then washed three times with 1 ml of 0.5M acetic acid on a Millipore 1225 sampling manifold. The partially dried membranes were placed in scintillation cocktail and counted with a Beckman LS 3801 scintillation counter. One unit of activity was defined as the amount of enzyme able to transfer 1 pmol of [^3 H] acetyl group from [^3 H] acetyl coenzyme A to synthetic peptide per min under standard enzyme assay conditions defined above.
In order to determine the possible catalytic role for different types of amino acid residues in the enzyme, various chemical modifications were carried out (Table 10). Yeast methionine acetyltransferase was incubated with each reagent at 30° C. for 15 min, dialyzed against 50 mM HEPES, pH 7.4, 150 mM, 1 mM DTT at 4° C. for 3 to 4 hr. The enzyme activity was determined under standard assay conditions using PAI (N=3), assayed as described above.

yeast N^α AT = target: T1, yeast N^α AT (Saccharomyces cerevisiae, UniProt P07347+P12945); assay: Effect of ions and reagents on yeast N^α AT (comparison in the discussion); type: biochemical
T1 sequence (P12945 2-854 limits assumed): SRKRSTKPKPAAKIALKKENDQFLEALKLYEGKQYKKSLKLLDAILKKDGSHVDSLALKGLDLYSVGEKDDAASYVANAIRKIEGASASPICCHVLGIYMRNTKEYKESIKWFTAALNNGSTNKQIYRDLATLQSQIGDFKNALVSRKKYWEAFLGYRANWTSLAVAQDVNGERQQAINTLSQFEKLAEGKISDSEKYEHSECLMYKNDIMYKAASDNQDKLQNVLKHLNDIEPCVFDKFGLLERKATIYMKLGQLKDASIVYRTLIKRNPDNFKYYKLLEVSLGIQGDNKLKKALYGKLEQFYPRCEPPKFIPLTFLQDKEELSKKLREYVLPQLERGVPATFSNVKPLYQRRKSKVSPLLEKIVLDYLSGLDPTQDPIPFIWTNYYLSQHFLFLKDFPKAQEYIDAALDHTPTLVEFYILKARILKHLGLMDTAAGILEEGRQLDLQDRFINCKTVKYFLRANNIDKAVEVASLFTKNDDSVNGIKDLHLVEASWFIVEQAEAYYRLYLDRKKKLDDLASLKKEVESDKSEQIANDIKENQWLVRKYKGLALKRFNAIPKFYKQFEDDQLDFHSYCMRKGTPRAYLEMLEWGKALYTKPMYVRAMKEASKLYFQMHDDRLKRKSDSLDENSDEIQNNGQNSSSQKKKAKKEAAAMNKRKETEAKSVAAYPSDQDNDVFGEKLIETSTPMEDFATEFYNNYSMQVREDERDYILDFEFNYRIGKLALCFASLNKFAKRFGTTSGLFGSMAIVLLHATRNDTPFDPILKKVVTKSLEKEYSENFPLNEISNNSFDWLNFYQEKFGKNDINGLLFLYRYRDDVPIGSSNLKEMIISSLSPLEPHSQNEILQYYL
T1 sequence (P07347 1-238): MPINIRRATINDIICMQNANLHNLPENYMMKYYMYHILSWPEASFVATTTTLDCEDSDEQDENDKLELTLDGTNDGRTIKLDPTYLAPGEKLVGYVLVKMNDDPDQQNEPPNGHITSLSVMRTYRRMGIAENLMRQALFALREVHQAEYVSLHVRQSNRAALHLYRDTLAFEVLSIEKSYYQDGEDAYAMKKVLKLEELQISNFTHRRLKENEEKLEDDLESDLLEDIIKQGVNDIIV

[2] = test system: methionine N^α -acetyltransferase from S. cerevisiae; type: biochemical, Saccharomyces cerevisiae; settings: for effect of ion or salt on M-N^α AT activity: concentration not given; for Enzyme Activity (%): 5 min room temperature, 50 mM HEPES pH 7.4, 1 mM DTT, substrate PAI (N=3)
Protocol: as §1, with “counter.” for “counter. One unit of activity was defined as the amount of enzyme able to transfer 1 pmol of [^3 H] acetyl group from [^3 H] acetyl coenzyme A to synthetic peptide per min under standard enzyme assay conditions defined above.”
Yeast methionine acetyltransferase was incubated in the presence of various divalent cations at a room temperature for 5 min in 50 mM HEPES, pH 7.4 containing 1 mM DTT. The enzyme activity was determined under standard assay conditions using PAI (N=3), as described above.

[3] = target: T2, N^α -acetyltransferase activity of crude yeast lysate, aaa1 mutant strain T3A-a (Saccharomyces cerevisiae, UniProt Q06504); assay: N^α -acetylation of peptide substrates by crude yeast lysate, aaa1 mutant strain; type: biochemical; settings: crude lysate of aaa1 mutant strain T3A-a; mean ± SD (N=3-5); normalized to human adrenocorticotropic hormone (1-24); 50 μM peptide
T2 construct: a crude yeast homogenate from the aaa1 mutant strain; endogenous in cells; host or cells: Saccharomyces cerevisiae strain T3A-a (aaa1), crude lysate
T2 sequence (Q06504 1-195): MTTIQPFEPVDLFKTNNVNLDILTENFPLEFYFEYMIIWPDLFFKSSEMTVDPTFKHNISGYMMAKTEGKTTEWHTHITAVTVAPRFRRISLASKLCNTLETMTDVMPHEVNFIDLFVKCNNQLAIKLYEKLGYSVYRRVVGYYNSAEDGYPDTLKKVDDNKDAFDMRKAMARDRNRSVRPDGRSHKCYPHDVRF
T2 sequence (Q12387 1-796 partner): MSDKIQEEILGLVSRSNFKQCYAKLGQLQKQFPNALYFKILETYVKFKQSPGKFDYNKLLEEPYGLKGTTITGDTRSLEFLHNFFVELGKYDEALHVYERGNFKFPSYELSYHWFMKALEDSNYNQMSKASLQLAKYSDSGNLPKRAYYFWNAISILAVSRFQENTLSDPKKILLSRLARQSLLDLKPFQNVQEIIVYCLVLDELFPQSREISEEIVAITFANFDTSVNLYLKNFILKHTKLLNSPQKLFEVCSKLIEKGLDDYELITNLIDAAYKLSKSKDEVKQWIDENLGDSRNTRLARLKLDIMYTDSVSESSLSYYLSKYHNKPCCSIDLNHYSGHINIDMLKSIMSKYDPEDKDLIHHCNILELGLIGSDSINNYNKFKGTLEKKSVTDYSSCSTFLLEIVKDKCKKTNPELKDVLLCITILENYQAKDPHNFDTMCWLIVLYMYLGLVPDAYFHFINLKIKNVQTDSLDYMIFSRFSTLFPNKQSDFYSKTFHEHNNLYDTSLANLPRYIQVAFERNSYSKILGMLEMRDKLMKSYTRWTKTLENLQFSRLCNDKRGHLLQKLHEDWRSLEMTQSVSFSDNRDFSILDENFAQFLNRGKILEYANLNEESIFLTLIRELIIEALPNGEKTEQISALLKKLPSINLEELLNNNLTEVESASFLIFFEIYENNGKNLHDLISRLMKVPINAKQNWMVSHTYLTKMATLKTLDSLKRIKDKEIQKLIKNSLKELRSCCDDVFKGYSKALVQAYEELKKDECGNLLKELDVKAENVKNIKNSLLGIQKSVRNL
Protocol: as §1
(§2) The wild-type (containing endogenous N^α -acetyltransferase activity) and the aaa1 (lacking endogenous N^α -acetyltransferase activity) strains were T3A and T3A-a, respectively (Lee, F-J. S., et al., J. Bacteriol. 171, 5795-5802 (1989)). Human adrenocorticotropic hormone (1-24), yeast alcohol dehydrogenase (1-24), and human superoxide dismutase (1-24) have either serine or alanine as amino-terminal residues, while proteinase A inhibitor 3 has a methionine residue. The synthesis of the peptide substrates, the preparation of the crude yeast homogenate, and the assay of enzyme activity were as previously described by Lee et al. (Lee, F-J. S., et al., J. Biol. Chem. 263:14948 (1988); Kamitani, K., et al., J. Biol. Chem. 264:13188 (1989)). The numbers in parentheses refer to the residue numbers, and the letters in parentheses specify the amino acid sequence. Abbreviations: A (alanine), C (cysteine), D (aspartic acid), E (glutamic acid), F (phenylalanine), G (glycine), H (histidine), I (isoleucine), K (lysine), L (leucine), M (methionine), N (asparagine), P (proline), Q (glutamine), R (arginine), S (serine), T (threonine), V (valine), W (tryptophan). Data are reported as mean activity±SD (N=3-5) and are normalized to the activity of the homogenate towards human adrenocorticotropic hormone (1-24).

[4] = test system: N^α -acetyltransferase activity of crude yeast lysate, wild-type (AAA1) strain T3A; assay: N^α -acetylation of peptide substrates by crude yeast lysate, wild-type strain; type: biochemical, Saccharomyces cerevisiae; settings: crude lysate of wild-type strain T3A; mean ± SD (N=3-5); normalized to human adrenocorticotropic hormone (1-24); 50 μM peptide
Protocol: as §1, §2

[5] = reagent 10.0 mM, 30° C. 15 min, then dialyzed, substrate PAI (N=3)
[6] = reagent 1.0 mM, 30° C. 15 min, then dialyzed, substrate PAI (N=3)

OCCS [2-mercaptoethanol]
effect of reagent on M-N^α AT activity ([1]; concentration not given): did not affect the enzyme activity
effect of reagent on M-N^α AT activity ([1]; concentration not given, listed as β-mercaptoethanol): inability
Enzyme Activity (%) [1, 5]: 96%
effect of reagent on N^α AT activity (yeast N^α AT): inability

O=S(=O)([O-])[O-].[Cu+2] [CuSO4]
effect of ion or salt on M-N^α AT activity ([2]; listed as Cu^2+): pronounced and concentration-dependent inhibition; also recorded: inhibited markedly
Enzyme Activity (%) ([2]; salt 0.1 mM): 65%
Enzyme Activity (%) ([2]; salt 1 mM): 0%
effect of ion on N^α AT activity (yeast N^α AT): inhibited markedly

OC(CS)C(O)CS (stereo not drawn) [DTT]
effect of reagent on M-N^α AT activity ([1]; concentration not given): did not affect the enzyme activity; also recorded: inability
Enzyme Activity (%) [1, 5]: 95%
effect of reagent on N^α AT activity (yeast N^α AT): inability

O=C(O)CI [IAA, iodoacetic acid]
Enzyme Activity (%) [1]: 102% and 75%
effect of reagent on N^α AT activity (yeast N^α AT): inability

NC(=O)CI [IAM, iodoacetamide]
effect of reagent on M-N^α AT activity ([1]; 1 mM): without effect
effect of reagent on M-N^α AT activity ([1]; 10 mM): partial inactivation
effect of reagent on M-N^α AT activity ([1]; concentration not given): inability
Enzyme Activity (%) [1, 6]: 100%
Enzyme Activity (%) [1, 5]: 86%
effect of reagent on N^α AT activity (yeast N^α AT): inability

CCN1C(=O)C=CC1=O [NEM, N-ethylmaleimide]
effect of reagent on M-N^α AT activity ([1]; 0.5 mM): partial inactivation
effect of reagent on M-N^α AT activity ([1]; concentration not given): inability
Enzyme Activity (%) ([1]; reagent 0.5 mM, 30° C. 15 min, then dialyzed, substrate PAI (N=3)): 77%
Enzyme Activity (%) ([1]; reagent 5.0 mM, 30° C. 15 min, then dialyzed, substrate PAI (N=3)): 20%
effect of reagent on N^α AT activity (yeast N^α AT): inability

O=S(=O)([O-])[O-].[Zn+2] [ZnSO4]
effect of ion or salt on M-N^α AT activity ([2]; listed as Zn^2+): pronounced and concentration-dependent inhibition; also recorded: inhibited markedly
Enzyme Activity (%) ([2]; salt 0.01 mM): 95%
Enzyme Activity (%) ([2]; salt 0.1 mM): 52%
Enzyme Activity (%) ([2]; salt 1 mM): 0%
effect of ion on N^α AT activity (yeast N^α AT): inhibited markedly

Cl [chloride ion]
effect of ion or salt on M-N^α AT activity [2]: neither M-N^α AT nor N^α AT were activated
effect of ion on N^α AT activity (yeast N^α AT): neither M-N^α AT nor N^α AT were activated

O=C(O)c1cc[c]([Hg][Cl])cc1 [pCMB, p-chloromercuribenzoate]
effect of reagent on M-N^α AT activity ([1]; 1 mM): without effect
effect of reagent on M-N^α AT activity ([1]; 10 mM): partial inactivation
effect of reagent on M-N^α AT activity ([1]; concentration not given): inability
Enzyme Activity (%) [1, 6]: 94%
Enzyme Activity (%) [1, 5]: 25%
effect of reagent on N^α AT activity (yeast N^α AT): inability

ATKAVCVLKGDGPVQGSINFEQKE (ATKAVCVLKGDGPVQGSINFEQKE) [Superoxide dismutase (1-24) (Human)]
Activity (%) aaa1 [3]: 0%
Activity (%) AAA1 [4]: 80 ± 6%
